In patent publication US8211900B2, “DHFR enzyme inhibitors” (Chroma Therapeutics Ltd., priority 2006, dated 2012) one finds IC50 data, which are given here for 10 compounds.

One experiment concerns THP-1. Kind of experiment: Cell inhibition assay (WST-1 cell viability), THP-1. It is filed as cell-based. Conditions: Homo sapiens, THP-1 cells, 72-96 h, read-out: Inhibition cell proliferation THP-1. How it is done:
(§1) Cancer cell lines (U937, HCT-116, THP-1 and HUT78) growing in log phase were harvested and seeded at 1000-2000 cells/well (100 μl final volume) into 96-well tissue culture plates. Following 24 h of growth cells were treated with compound.
(§2) Plates were then re-incubated for a further 72-96 h before a WST-1 cell viability assay was conducted according to the suppliers (Roche Applied Science) instructions. Data were expressed as a percentage inhibition of the control, measured in the absence of inhibitor, as follows:— % inhibition=100−((S^i/S^o)×100) where S^i is the signal in the presence of inhibitor and S^o is the signal in the presence of DMSO. Dose response curves were generated from 8 concentrations (top final concentration 10 μM, with 3-fold dilutions), using 6 replicates. IC50 values were determined by non-linear regression analysis, after fitting the results to the equation for sigmoidal dose response with variable slope (% activity against log concentration of compound), using Graphpad Prism software. IC50 values were allocated to one of the three ranges as follows: • Range A IC %)<100 nM • Range B: 100 nM<IC50<1000 nM • Range C: IC50>1000 nM

The subject of a further experiment is U937. The experiment can be described thus: Cell inhibition assay (WST-1 cell viability), U937. It is filed as cell-based. Particulars: Homo sapiens, U-937, U937 cells, 72-96 h, read-out: Inhibition cell proliferation U937. How it is done:
as §1, §2
For orientation: Tetrazolium dyes change colour on reduction, which living cells bring about.

Another experiment deals with HCT-116. Kind of experiment: Cell inhibition assay (WST-1 cell viability), HCT-116. It is filed as cell-based. Conditions: Homo sapiens, HCT-116 cells, 72-96 h, read-out: Inhibition cell proliferation HCT-116. How it is done:
as §1, §2

A further experiment has as its system HUT78. The experiment can be described thus: Cell inhibition assay (WST-1 cell viability), HUT78. It is filed as cell-based. Particulars: Homo sapiens, HUT78 cells, 72-96 h, read-out: Inhibition cell proliferation HUT. How it is done: as §1, §2
In a further experiment the target is T1, recombinant human DHFR (Homo sapiens, UniProt P00374).
T1 construct: purchased Sigma CS0340
T1 sequence (P00374 1-187): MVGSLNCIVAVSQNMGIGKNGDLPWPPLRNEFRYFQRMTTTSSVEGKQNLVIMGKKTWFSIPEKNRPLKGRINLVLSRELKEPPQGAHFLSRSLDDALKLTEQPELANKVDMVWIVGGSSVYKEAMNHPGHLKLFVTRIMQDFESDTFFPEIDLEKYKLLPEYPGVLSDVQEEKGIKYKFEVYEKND
The experiment can be described thus: DHFR enzyme inhibition assay (Sigma kit CS0340). It counts as biochemical. Particulars: NADPH 60 μM, dihydrofolic acid 50 μM. How it is done: The ability of compounds to inhibit DHFR activity was measured in an assay based on the ability of DHFR to catalyse the reversible NADPH-dependent reduction of dihydrofolic acid to tetrahydrofolic acid using a Sigma kit (Catalogue number CS0340). This uses proprietary assay buffer and recombinant human DHFR at 7.5×10^−4 Unit per reaction, NADPH at 60 μM and dihydrofolic acid at 50 μM. The reaction was followed by monitoring the decrease in absorbance at 340 nm, for a 2 minute period, at room temperature, and the enzyme activity was calculated as the rate of decrease in absorbance. Enzyme activity, in the presence of inhibitor, was expressed as a percentage of inhibitor-free activity and the inhibitor IC50 was determined from a sigmoidal dose response curve using XLfit software (% activity against log concentration of compound). Each sample was run in triplicate and each dose response curve was composed of 10 dilutions of the inhibitor.

`COc1cc(NCc2ccc3nc(N)nc(N)c3c2C)cc(OC)c1OCC(=O)N[C@@H](CC(C)C)C(=O)OC1CCCC1` [Example 5, Cyclopentyl N-[(4-{[(2,4-diamino-5-methylquinazolin-6-yl)methyl]amino}-2,6-dimethoxyphenoxy)acetyl]-L-leucinate]: the IC50 is < 100 nM in the experiment with THP-1; < 100 nM in the experiment on U937; 100 to 1000 nM with HCT-116; < 100 nM in the experiment with HUT78; > 1000 nM on recombinant human DHFR.
As for `COc1cc(NCc2ccc3nc(N)nc(N)c3c2C)cc(OC)c1OCCN[C@@H](CC(C)C)C(=O)O` [Example 9, N-[2-(4-{[(2,4-diamino-5-methylquinazolin-6-yl)methyl]amino}-2,6-dimethoxyphenoxy)ethyl]-L-leucine], at recombinant human DHFR, the IC50 is < 100 nM.
`Cc1c(CNc2ccc(C(=O)N[C@@H](CC(C)C)C(=O)OC3CCCC3)cc2)cnc2nc(N)nc(N)c12` [Example 1, (S)-2-{4-[(2,4-Diamino-5-methyl-pyrido[2,3-d]pyrimidin-6-ylmethyl)-amino]-benzoylamino}-4-methyl-pentanoic Acid Cyclopentyl Ester]: the IC50 was < 100 nM in the experiment on THP-1; < 100 nM with U937; < 100 nM in the experiment on HCT-116; < 100 nM with HUT78; > 1000 nM at recombinant human DHFR.
Take `Cc1c(CNc2ccc(CN[C@@H](CC(C)C)C(=O)O)cc2)cnc2nc(N)nc(N)c12` [Example 4, (S)-2-{4-[(2,4-Diamino-5-methyl-pyrido[2,3-d]pyrimidin-6-ylmethyl)-amino]-benzylamino}-4-methyl-pentanoic Acid]: the IC50 on recombinant human DHFR was < 100 nM.
For the compound `Cc1c(CNc2ccc(CN[C@@H](CC(C)C)C(=O)OC3CCCC3)cc2)cnc2nc(N)nc(N)c12` [Example 3, (S)-2-{4-[(2,4-Diamino-5-methyl-pyrido[2,3-d]pyrimidin-6-ylmethyl)-amino]-benzylamino}-4-methyl-pentanoic Acid Cyclopentyl Ester], the IC50 in the experiment on THP-1 was 100 to 1000 nM; with U937 it was < 100 nM; with HCT-116, > 1000 nM; in the experiment with HUT78 it was 100 to 1000 nM; on recombinant human DHFR, > 1000 nM.
For `COc1cc(NCc2ccc3nc(N)nc(N)c3c2C)cc(OC)c1OCCN[C@@H](CC(C)C)C(=O)OC(C)(C)C` [Example 10, tert-Butyl N-[2-(4-{[(2,4-diamino-5-methylquinazolin-6-yl)methyl]amino}-2,6-dimethoxyphenoxy)ethyl]-L-leucinate], the IC50 in the experiment on THP-1, with U937, in the experiment with HCT-116, in the experiment with HUT78 and at recombinant human DHFR was 100 to 1000 nM throughout.
Take `COc1cc(NCc2ccc3nc(N)nc(N)c3c2C)cc(OC)c1OCC(=O)N[C@@H](CC(C)C)C(=O)OC(C)(C)C` [Example 6, tert-Butyl N-[(4-{[(2,4-diamino-5-methylquinazolin-6-yl)methyl]amino}-2,6-dimethoxyphenoxy)acetyl]-L-leucinate]: the IC50 with THP-1 is < 100 nM; with U937, < 100 nM; in the experiment on HCT-116, 100 to 1000 nM; in the experiment with HUT78, 100 to 1000 nM; on recombinant human DHFR it was > 1000 nM.
As for `COc1cc(NCc2ccc3nc(N)nc(N)c3c2C)cc(OC)c1OCCN[C@@H](CC(C)C)C(=O)OC1CCCC1` [Example 8, Cyclopentyl N-[2-(4-{[(2,4-diamino-5-methylquinazolin-6-yl)methyl]amino}-2,6-dimethoxyphenoxy)ethyl]-L-leucinate], the IC50 in the experiment with THP-1 is < 100 nM; in the experiment on U937, < 100 nM; with HCT-116, 100 to 1000 nM; in the experiment with HUT78, < 100 nM; on recombinant human DHFR, 100 to 1000 nM.
With `Cc1c(CNc2ccc(C(=O)N[C@@H](CC(C)C)C(=O)O)cc2)cnc2nc(N)nc(N)c12` [Example 2, (S)-2-(4-((2,4-diamino-5-methylpyrido[2,3-a]pyrimidin-6-yl)methylamino)benzamido)-4-methylpentanoic Acid], the IC50 at recombinant human DHFR was < 100 nM.
In the case of `COc1cc(NCc2ccc3nc(N)nc(N)c3c2C)cc(OC)c1OCC(=O)N[C@@H](CC(C)C)C(=O)O` [Example 7, N-[(4-{[(2,4-diamino-5-methylquinazolin-6-yl)methyl]amino}-2,6-dimethoxyphenoxy)acetyl]-L-leucine], on recombinant human DHFR, the IC50 is < 100 nM.
